#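 Step 1: Grow cells in 96-well plates. Step 2: Expose to compound for 48 hours at 5 concentrations. Step 3: Interpolate endpoints linearly; if unreached, use highest concentration. TGI denotes the concentration required for complete inhibition of growth.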
# Key:
# Test in all cases: DTP human tumour cell line panel, 48 h
# A498 renal = tested on: A498 renal
# IGROV1 ovarian = tested on: IGROV1 ovarian
# K-562 leukemia = tested on: K-562 leukemia
# MDA-MB-231 breast = tested on: MDA-MB-231 breast
# MDA-MB-435 = tested on: MDA-MB-435
# NCI/ADR-RES ovarian = tested on: NCI/ADR-RES ovarian
# OVCAR-8 ovarian = tested on: OVCAR-8 ovarian
# RPMI-8226 leukemia = tested on: RPMI-8226 leukemia
# UO-31 renal = tested on: UO-31 renal
# SNB-75 CNS = tested on: SNB-75 CNS
# UACC-62 melanoma = tested on: UACC-62 melanoma
SMILES,TGI (A498 renal),TGI (IGROV1 ovarian),TGI (K-562 leukemia),TGI (MDA-MB-231 breast),TGI (MDA-MB-435),TGI (NCI/ADR-RES ovarian),TGI (OVCAR-8 ovarian),TGI (RPMI-8226 leukemia),TGI (UO-31 renal),TGI (SNB-75 CNS),TGI (UACC-62 melanoma)
CSCCCCCCCCCCOc1ccc(C=C2C(=C(C#N)C#N)c3ccccc3C2=C(C#N)C#N)cc1,33.1 µM,34.7 µM,> 100 µM,35.7 µM,32.9 µM,75.7 µM,39.6 µM,> 100 µM,29.9 µM,–,–
Fc1ccc(C(OCCN2CCC3CCC(C2)N3Cc2cc3ccccc3[nH]2)c2ccc(F)cc2)cc1 (stereo not drawn),2.99 µM,2.79 µM,–,3.22 µM,3.55 µM,3.1 µM,3.1 µM,3.42 µM,3.42 µM,3.97 µM,4.46 µM
O=C(O)CCC1(c2ccccc2)NC(=O)NC1=O (stereo not drawn),> 100 µM,> 100 µM,> 100 µM,> 100 µM,> 100 µM,> 100 µM,> 100 µM,> 100 µM,–,> 100 µM,> 100 µM
CC(=O)OC[C@@]12C[C@H]3C(=O)C(C)(C)C[C@H]3[C@]1(C)[C@@H](OC(C)=O)[C@]1(O)[C@H]([C@@H](OC(=O)c3ccccc3)[C@@H](C)[C@H]1OC(C)=O)[C@H]2OC(C)=O,> 20 µM,> 20 µM,> 20 µM,> 20 µM,> 20 µM,> 20 µM,> 20 µM,–,> 20 µM,> 20 µM,> 20 µM
CC(C)[Si]1(C(C)C)OCC2OC(n3ccc(=O)[nH]c3=O)C(O)(CO)C2O[Si](C(C)C)(C(C)C)O1 (stereo not drawn),36.1 µM,23.9 µM,81.6 µM,26.7 µM,31.6 µM,30.1 µM,29.5 µM,26.2 µM,22.2 µM,–,29.2 µM
O=C1c2ccccc2C(=O)N1c1ccc(OCCN2CCCCC2)cc1,> 100 µM,> 100 µM,> 100 µM,> 100 µM,> 100 µM,> 100 µM,> 100 µM,> 100 µM,–,–,> 100 µM
O=C(NCc1ccccc1)c1cnc(Cl)cn1,> 100 µM,> 100 µM,–,> 100 µM,> 100 µM,44.2 µM,> 100 µM,> 100 µM,36.3 µM,> 100 µM,> 100 µM
C=C(Cl)C(Cl)(CBr)CCC(Cl)C(C)(C)Cl (stereo not drawn),4.04 µM,26.3 µM,29.3 µM,5.83 µM,8.21 µM,11.8 µM,13 µM,0.872 µM,5.15 µM,1.77 µM,–

# From PubChem BioAssay (NCI)
